# Results from publication PMC4556275 (Drug metabolism and pharmacokinetics, 2010).
# Assays:
# [1] = Metabolic stability in pooled human liver microsomes; format: in vitro ADME; conditions: for CLint (microsomal): 1 μM substrate, 0.5 mg/mL HLM protein, 37°C; for ER (extraction ratio) / Hepatic CL: well-stirred model, Q 1400 mL/min, fu assumed 1
# [2] = Metabolite profiling in HLM incubations by MRM-IDA-EPI; format: in vitro ADME, human; conditions: HLM incubation, MRM-IDA-EPI method
SMILES,CLint (microsomal) [1],ER (extraction ratio) [1],Hepatic CL [1],number of metabolites formed and detected [2]
"O=C(C1CCC(F)(F)CC1)N1CC(=O)N2CCc3ccccc3C2C1 (stereo not drawn) [PZ02, 2-(4,4-difluorocyclohexyl)carbonyl-1,2,3,6,7,11b-hexahydro-4H-pyrazino(2,1-α)isoquinoline-4-one]",22.8 μl/min/mg microsomal protein,0.44,620.2 mL/min,Nine
"O=C(N1CCCCC1)N1CC(=O)N2CCc3ccccc3C2C1 (stereo not drawn) [PZ07, 2-piperidinylcarbonyl-1,2,3,6,7,11b-hexa-hydro-4H-pyrazino(2,1-α)isoquinoline-4-one]",22.0 μl/min/mg microsomal protein,0.43,607.9 mL/min,–
"O=C(N1CCC(F)(F)CC1)N1CC(=O)N2CCc3ccccc3C2C1 (stereo not drawn) [PZ10, 2-(4,4-difluoropiperidinyl)carbonyl-1,2,3,6,7,11b-hexa-hydro-4H-pyrazino(2,1-α)isoquinoline-4-one]",16.2 μl/min/mg microsomal protein,0.36,505.5 mL/min,Eight
